Reference: patent US20090186900A1, “COMPOUND” (priority 2006, published 2009)

Assays:
E1-STS = target: T1, E1-STS (Homo sapiens, UniProt P08842); conditions: intact MCF-7 cells, at 0.1 mM; cited from earlier work
T1 construct: endogenous in cells; host or cells: MCF-7 human breast cancer cells
T1 sequence (P08842 22-583): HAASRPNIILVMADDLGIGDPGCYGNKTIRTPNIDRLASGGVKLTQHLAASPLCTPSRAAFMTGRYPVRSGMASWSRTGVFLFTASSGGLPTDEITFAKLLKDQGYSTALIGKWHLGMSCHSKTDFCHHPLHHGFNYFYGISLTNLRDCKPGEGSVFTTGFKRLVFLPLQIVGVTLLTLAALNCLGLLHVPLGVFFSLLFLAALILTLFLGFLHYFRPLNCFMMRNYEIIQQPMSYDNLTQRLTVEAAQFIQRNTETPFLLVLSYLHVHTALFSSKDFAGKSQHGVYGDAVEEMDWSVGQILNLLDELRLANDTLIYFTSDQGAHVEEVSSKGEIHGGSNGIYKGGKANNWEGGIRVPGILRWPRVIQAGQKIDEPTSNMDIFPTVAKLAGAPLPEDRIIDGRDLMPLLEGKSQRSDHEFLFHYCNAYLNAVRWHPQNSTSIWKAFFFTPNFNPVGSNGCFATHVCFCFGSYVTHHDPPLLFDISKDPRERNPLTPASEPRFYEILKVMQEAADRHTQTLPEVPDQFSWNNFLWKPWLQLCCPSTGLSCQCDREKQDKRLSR

rat liver E1-STS = target: T2, rat liver E1-STS (Rattus norvegicus, UniProt P15589); conditions: administered either orally or subcutaneously; cited from earlier work
T2 construct: from tissue; host or cells: rat liver
T2 sequence (P15589 20-577): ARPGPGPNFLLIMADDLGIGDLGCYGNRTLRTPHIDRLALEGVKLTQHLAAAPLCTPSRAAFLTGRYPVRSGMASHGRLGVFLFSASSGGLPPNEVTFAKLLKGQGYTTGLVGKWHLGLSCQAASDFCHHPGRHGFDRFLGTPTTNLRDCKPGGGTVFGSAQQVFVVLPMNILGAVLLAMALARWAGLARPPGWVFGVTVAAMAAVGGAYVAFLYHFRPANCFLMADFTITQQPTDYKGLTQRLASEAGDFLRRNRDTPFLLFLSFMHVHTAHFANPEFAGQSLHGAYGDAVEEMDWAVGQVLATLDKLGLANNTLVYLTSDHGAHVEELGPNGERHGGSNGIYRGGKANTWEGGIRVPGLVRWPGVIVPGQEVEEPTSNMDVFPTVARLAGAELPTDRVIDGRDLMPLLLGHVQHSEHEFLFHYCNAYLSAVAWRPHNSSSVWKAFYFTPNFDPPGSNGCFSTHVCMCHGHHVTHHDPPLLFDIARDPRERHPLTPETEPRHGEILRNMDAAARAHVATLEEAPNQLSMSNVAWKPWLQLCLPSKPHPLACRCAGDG

DHA-STS = target: T3, DHA-STS (Rattus norvegicus, UniProt P15589); conditions: administered either orally or subcutaneously; cited from earlier work
T3 construct: from tissue; host or cells: rat liver
T3 sequence (P15589 20-577): T2 sequence (P15589 20-577)

rats = conditions: cited from earlier work

SMILES | melting point | further results
C[C@]12CC[C@@H]3c4ccc(OS(N)(=O)=O)cc4CC[C@H]3[C@@H]1CCC2=O [EMATE, oestrone-3-sulphamate] |  | inhibition of E1-STS activity (E1-STS): more than 99%; inhibition of rat liver E1-STS activity (rat liver E1-STS): 99%; inhibition of rat liver DHA-STS activity (DHA-STS): 99%; oral uterotrophic activity relative to oestradiol (rats): 100 times
CCc1cc(-c2ccc(C(C)=O)cc2)ccc1OC [Compound 38, 1-(3′-Ethyl-4′-methoxy-biphenyl-4-yl)-ethanone] | 69 to 72 °C | 
CCc1cc(-c2ccc(-c3ccn(C)n3)cc2)ccc1OC [Compound 45, 3-(3′-Ethyl-4′-methoxy-biphenyl-4-yl)-1-methyl-1H-pyrazole] | 167 to 170 °C | 
CCc1cc(-c2ccc(-c3cc[nH]n3)cc2)ccc1OC [Compound 44, 3-(3′-Ethyl-4′-methoxy-biphenyl-4-yl)-1H-pyrazole] | 164 to 168 °C | 
CCc1cc(-c2ccc(C(=O)CCC(=O)NCCO)cc2)ccc1O [Compound 37, 4-(3′-Ethyl-4′-hydroxy-biphenyl)-4-oxo-N-(2-hydroxyethyl)-butyramide] | > 110 °C (dec.) | 

Continued, in another order:

melting point | SMILES | further results
116 to 120 °C | CCc1cc(-c2ccc(-c3ccn(CC(=O)OC)n3)cc2)ccc1OC [Compound 48, [3-(3′-Ethyl-4′-methoxy-biphenyl-4-yl)-pyrazol-1-yl]-acetic Acid Methyl Ester] | 
> 191 °C (dec.) | O=C(CCC(=O)c1ccc(Oc2ccc(O)cc2)cc1)NCc1cccnc1 [Compound 118, 4-(4-(4-Hydroxyphenoxy)phenyl)-4-oxo-N-((pyridin-3-yl)methyl)butanamide] | 
159 to 161 °C | CC(=O)c1ccc(Oc2ccc(O)cc2)cc1 [Compound 129, 1-(4-(4-Hydroxyphenoxy)phenyl)ethanone] | 
45 to 50 °C | CC(=O)c1ccc(Oc2cccnc2)cc1 [Compound 135, 1-(4-(Pyridin-3-yloxy)phenyl)ethanone] | 
97 to 100 °C | CCc1cc(-c2ccc(-c3ccnn3C)cc2)ccc1OC [Compound 46, 5-(3′-Ethyl-4′-methoxy-biphenyl-4-yl)-1-methyl-1H-pyrazole] | 
210 to 214 °C | CCc1cc(-c2ccc(-c3cc(CCC(=O)NCc4cccnc4)[nH]n3)cc2)ccc1O [Compound 66, 3-[5-(3′-Ethyl-4′-hydroxy-biphenyl-4-yl)-2H-pyrazol-3-yl]-N-pyridin-3-ylmethyl-propionamide] | 
53 to 56 °C | CCc1cc(Oc2ccc(C(C)=O)cc2)ccc1OC [Compound 140, 1-(4-(3-Ethyl-4-methoxyphenoxy)phenyl)ethanone] | 
